Test results taken from publication doi:10.1101/2025.10.13.682155v1 (biorxiv, 2025).

Biological target: T1, hCNPY4 (FLAG-tagged human Canopy4) (Homo sapiens, UniProt Q8N129)
T1 sequence (Q8N129 22-248): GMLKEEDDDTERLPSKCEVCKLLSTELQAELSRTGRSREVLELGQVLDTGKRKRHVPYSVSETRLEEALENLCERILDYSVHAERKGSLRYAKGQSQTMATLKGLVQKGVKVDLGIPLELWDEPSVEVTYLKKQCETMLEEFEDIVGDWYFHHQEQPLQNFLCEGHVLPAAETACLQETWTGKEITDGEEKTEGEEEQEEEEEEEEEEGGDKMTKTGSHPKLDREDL
Experiment: fluorescence polarization, direct titration
Assay type: binding

Kd	SMILES
80 ± 25 nM	CCCCCCCCCCCCC/C=C/[C@@H](O)[C@H](CO)NC(=O)CCCCCNc1ccc([N+](=O)[O-])c2nonc12 [NBD-ceramide 6:0]
130 ± 40 nM	CCCCCCCCCCCCC/C=C/[C@@H](O)[C@H](COP(=O)(O)O)NC(=O)CCCCCNc1ccc([N+](=O)[O-])c2nonc12 [NBD-ceramide-1-phosphate 6:0]
280 ± 120 nM	CCCCCCCCCCCCC/C=C/[C@@H](O)[C@H](COP(=O)([O-])OCC[N+](C)(C)C)NC(=O)CCCCCNc1ccc([N+](=O)[O-])c2nonc12 [NBD-sphingomyelin 6:0]
